Experimental findings from patent publication EP1243590A2, “Nucleotide analog composition and synthesis method” (GILEAD SCIENCES, INC., priority 1997, dated 1999) are described below.

Counter-ions that a name gives are not always drawn.

For data set [1] the following is noted: human, in vivo.
A short description of data set [2]: Hygroscopicity at 92% relative humidity. As to conditions: room temperature, up to 37 days. The data set is classed as physicochemical.
The nature of data set [3]: Solid state chemical stability on storage at elevated temperature and relative humidity. The data set is classed as physicochemical. As to conditions: for BPPF% / mono(POC) PMPA fumarate% / bis(POC) PMPA citrate% / mono(POC) PMPA citrate%: 0 days; for mono(POC) PMPA fumarate%: degradation product in stored BPPF. From the text:
The solid state chemical stability of cBPPF and bis(POC)PMPA·citrate salt was compared by analyzing each compound after storage under different conditions.

For “9-[2-(R)-[[bis[[(isopropoxycarbonyl)oxy]methoxy] phosphinoyl]methoxy]propyl]-adenine•fumaric acid (1:1) [BPPF]”, in data set [1], the oral bioavailability is reported as 30-40%. For the same molecule, the hygroscopicity entry in data set [2] was “not hygroscopic”. The BPPF% in data set [3] (40°C, 75% relative humidity) worked out at 99.0%; in data set [3] (60°C, 75% relative humidity), 99.0%. Moreover, the “mono(POC) PMPA fumarate%” value in data set [3] (40°C, 75% relative humidity) was 1.0%; in data set [3] (60°C, 75% relative humidity), 1.0%. Besides, in data set [3] (storage at elevated temperature and relative humidity), the “solid state chemical stability compared with bis(POC)PMPA citrate salt” value is “more stable”.

Turning to `CC(C)OC(=O)OCOP(=O)(CO[C@H](C)Cn1cnc2c(N)ncnc21)OCOC(=O)OC(C)C` [bis(POC) PMPA citrate], the “bis(POC) PMPA citrate%” value in data set [3] (40°C, 75% relative humidity) is 99.0%; in data set [3] (60°C, 75% relative humidity), 99.0%. Besides, the “mono(POC) PMPA citrate%” value is 1.0% in data set [3] (40°C, 75% relative humidity, degradation product in stored citrate salt) and 1.0% in data set [3] (60°C, 75% relative humidity, degradation product in stored citrate salt). The remaining at 336 h in data set [3] (solid, 75% rh, 40°C, 75% relative humidity, 14 days, read-out: bis(POC) PMPA citrate%) was found to be 96.9%. In data set [3] (solid, 75% rh, 40°C, 75% relative humidity, 30 days, read-out: bis(POC) PMPA citrate%), the remaining at 720 h came out at 92.9%. Also, the remaining at 1440 h in data set [3] (solid, 75% rh, 40°C, 75% relative humidity, 60 days, read-out: bis(POC) PMPA citrate%) was determined as 77.6%. Further, in data set [3] (solid, 75% rh, 60°C, 75% relative humidity, 3 days, read-out: bis(POC) PMPA citrate%), the remaining at 72 h amounted to 24%. Moreover, the remaining at 168 h in data set [3] (solid, 75% rh, 60°C, 75% relative humidity, 7 days, read-out: bis(POC) PMPA citrate%) was found to be 6.7%. Besides, the degraded at 336 h in data set [3] (solid, 40°C, 75% relative humidity, 14 days, degradation product in stored citrate salt, read-out: mono(POC) PMPA citrate%) is 3.1%. Also, the degraded at 720 h in data set [3] (solid, 40°C, 75% relative humidity, 30 days, degradation product in stored citrate salt, read-out: mono(POC) PMPA citrate%) was 7.1%. Besides, the degraded at 1440 h in data set [3] (solid, 40°C, 75% relative humidity, 60 days, degradation product in stored citrate salt, read-out: mono(POC) PMPA citrate%) stood at 22.4%. The degraded at 72 h in data set [3] (solid, 60°C, 75% relative humidity, 3 days, degradation product in stored citrate salt, other products were generated in addition, read-out: mono(POC) PMPA citrate%) turned out to be 58.9%. Further, the degraded at 168 h in data set [3] (solid, 60°C, 75% relative humidity, 7 days, degradation product in stored citrate salt, other products were generated in addition, read-out: mono(POC) PMPA citrate%) was found to be 76.2%.
